Laboratory results: patent publication US9089578B2, “Method of treating neuroendocrine tumors” (Niiki Pharma Acquisition Corp. 2, priority 2010, dated 2015)

Experiments:
[1] = test system: Stage IV Carcinoid tumor of the small bowel; experiment: Prior chemo regimens of the carcinoid patient (history); assay type: in vivo, human; conditions: December 2009 to March 2010
Description: (§1) In a human clinical trial conducted in the US, a person with Stage IV Carcinoid tumor of the small bowel (a neuroectodermal tumor or NET) was selected to undergo treatment of sodium trans-[tetrachlorobis(1H-indazole)ruthenate(III)]. They previously had 2 surgeries: an exploratory lap (diagnosis of neuroendocrine tumor) in June 2008, and a partial surgical resection of mass in October 2008. The second surgery was followed by chemoembolization of residual tumor masses for palliative treatment in October 2008 and in November 2008. Systemic chemotherapy with capecitibine was administered between July and August 2009. In August 2009, therapy was changed to octreotide (Sandostatin LAR), but this was discontinued in November 2009.

[2] = test system: Stage IV Carcinoid tumor of the small bowel; experiment: Human clinical trial, carcinoid patient, tumor lesions by CT scan; assay type: in vivo; conditions: for Size of tumor lesion by CT scan, Left periaortic LN: baseline 2.5; for Size of tumor lesion by CT scan, Portacaval LN: baseline 3.0; for Size of tumor lesion by CT scan, Stomach/mesenteric LN: baseline 3.3; for Size of tumor lesion by CT scan, Esophageal LN: baseline 3.8
Description: as §1
As the tumors were progressing, the patient started therapy on May 7, 2010 with intravenous injection of sodium trans-[tetrachlorobis(1H-indazole)ruthenate(III)] at 320 mg/m^2 based on body surface area (for a total dose of 630 mg per administration) once per week, on days 1, 8, and 15 of each 28-day cycle. At that time the patient had four metastatic sites originating from the primary tumor small intestine carcinoid. The four metastatic sites were in portacaval lymph node, left periaortic lymph node, stomach/mesenteric lymph node, and esophageal lymph node. CT scan of the tumors was done at the start of the treatment (baseline), and thereafter every two months.

[3] = test system: serum gastrin; experiment: Serum gastrin level by chemiluminescence method in gastrinoma patient; assay type: in vivo, human; conditions: reduced from 8291
Description: (§2) In the same human clinical trial described above, a person with Stage IV gastrinoma of the stomach, (a neuroectodermal tumor or NET) diagnosed in December 2006 was enrolled. They had multiple attempts to achieve disease control with hepatic artery embolization in […], in January 2007, and in September 2007. Localized radiotherapy with Yttrium-90 instillation to the right lobe of the liver in March 2009 and the left lobe in May 2009 was attempted. Yet the tumor was not controlled.
Serum gastrin levels were measured using chemiluminescence method during the treatment period.

[4] = test system: Stage IV gastrinoma of the stomach; experiment: Human clinical trial, gastrinoma patient, tumor response; assay type: in vivo; conditions: 420 mg/m^2 i.v. days 1, 8, 15 of 28-day cycle, 6 cycles
Description: as §2

[5] = test system: human thyroid carcinoma cell line MB1; experiment: ATCC MTT Cell Proliferation Assay, MB1; assay type: cell-based; conditions: MB1 cells, 72 hours post-treatment, read-out: IC50 (concentration that inhibits cell growth by 50%)
Experimental: (§3) To test the activities of sodium trans-[tetrachlorobis(1H-indazole)ruthenate(III)], ATCC's MTT Cell Proliferation Assay® was performed using human thyroid carcinoma cell line MB1 and Merkel cell carcinoma cell line MKL-1, both being neuroendocrine tumor (NET) cell lines. Stock cultures were allowed to grow to 70-80% confluence for this study. The anti-proliferative activity of sodium trans-[tetrachlorobis(1H-indazole)ruthenate(III)], against the indicated cell line was evaluated in vitro using the ATCC's MTT Cell Proliferation Assay (Catalog No. 30-1010K). […] The plates were left overnight at room temperature in the dark and was read on a plate reader using SoftMax® Pro (version 5.2, Molecular Devices).
(§4) The absorbance data was analyzed as follows: Absorbance values were converted to Percent of Control and plotted against test agent concentrations for IC50 calculations using SoftMax® Pro (version 5.2, Molecular Devices). […] Percent of Control values were calculated by dividing the absorbance values for each test well by the No Drug Control average (column 11 values; cells+vehicle control) and multiplying by 100. Plots of Compound Concentration versus Percent of Control were analyzed using the 4-parameter equation to obtain IC50 values and other parameters that describe the sigmoidal dose response curve. […]

[6] = test system: Merkel cell carcinoma cell line MKL-1; experiment: ATCC MTT Cell Proliferation Assay, MKL-1; assay type: cell-based, human; conditions: MKL-1 cells, 72 hours post-treatment, read-out: IC50 (concentration that inhibits cell growth by 50%)
Experimental: as §3, §4

[7] = End of 2nd Cycle (Jun. 24, 2010), 320 mg/m^2 i.v.
[8] = End of 4th Cycle (Aug. 19, 2010), 320 mg/m^2 i.v.
[9] = carcinoid patient, 320 mg/m^2 i.v. once per week

C[C@@H](Oc1cc(-c2cnn(C3CCNCC3)c2)cnc1N)c1c(Cl)ccc(F)c1Cl [crizotinib]
outcome of prior therapy [1]: disease progression

[Cl][Ru-]([Cl])([Cl])[Cl].[Na+].c1ccc2[nH]ncc2c1.c1ccc2[nH]ncc2c1 [sodium trans-[tetrachlorobis(1H-indazole)ruthenate(III)]]
Size of tumor lesion by CT scan, Left periaortic LN [2, 7]: 2.5
Size of tumor lesion by CT scan, Portacaval LN ([2]; End of 2nd Cycle (Jun. 24, 2010), 320 mg/m^2 i.v. days 1, 8, 15 of 28-day cycle): 2.9
Size of tumor lesion by CT scan, Stomach/mesenteric LN [2, 7]: 3.1
Size of tumor lesion by CT scan, Esophageal LN [2, 7]: 3.0
Size of tumor lesion by CT scan, Left periaortic LN [2, 8]: 2.5
Size of tumor lesion by CT scan, Portacaval LN [2, 8]: 2.9
Size of tumor lesion by CT scan, Stomach/mesenteric LN [2, 8]: 3.1
Size of tumor lesion by CT scan, Esophageal LN [2, 8]: 2.0
disease status on treatment ([2]; after 14 cycles, as of July 2011): remains under control
effect on the remaining three lesions [2, 9]: stopped tumor growth
tumor regression in one lesion [2, 9]: ~50%
serious adverse events ([2]; carcinoid patient, 320 mg/m^2 i.v., 14 cycles): No serious adverse events have been observed
serum gastrin level reduced during the course of therapy [3]: 6120
best response [4]: stable disease
IC50 [5]: 73.7 µM
IC50 [6]: 40.4 µM
